How the values were obtained:
[1] = system: nerve cells obtained by dissecting the cerebral cortex of a rat (neuron network); experiment: Channel current measurement of a neuron network with the composite multi-channel type planar patch clamp device (whole-cell mode); format: cell-based; conditions: applied membrane potential −20 mV; for increase of large area pulse channel current in the state of glutamic acid toxicity: CNQX (200 μM) and D-AP5 (200 μM) added together after 20 μM glutamic acid, about 60 minutes, FIG. 12(c)
Description: The composite multi-channel type planar patch clamp device (1b) of the present invention was used to conduct experiments showing that high throughput screening of drugs acting on a neural network is possible. At the cell fixing locations (24) of the Si substrate surface (2S) having approximately 2 micron size through holes (3) of the composite multi-channel type planar patch clamp device (1b) shown in FIG. 5, nerve cells (5) obtained by dissecting the cerebral cortex of a rat on day 17 of birth were seeded. The commercially available nerve cell medium (Sumitomo Bakelite) was added and the result cultured in a dish for 11 days to form a neuron network which was then observed by an optical microscope (FIG. 10). Next, the Si substrate (2) on which the nerve cells (5) were placed was set on the composite multi-channel type planar patch clamp device (1b) and the reservoir sections (22) of the first reservoir (6) were filled with the bath solution (145 mM NaCl+3 mM KCl+10 mM HEPES+2 mM CaCl2+8 mM Glucose+1 mM MgCl2.6H2O, pH7.3). […] A flat baseline was recorded without regard to the applied membrane potential. […] After measurement for about 60 minutes, to one reservoir section (22) of the first reservoir, a bath solution comprising the AMPA receptor antagonist 6-cyano-7-nitroquinoxaline-2,3-dione (CNQX)(200 μM) and NMDA receptor antagonist D-(−)-2-amino-5-phosphonopentanoic acid (D-AP5) (200 μM) dissolved in it was introduced and the channel current was again measured (FIG. 11C). […] To show these states clearer, the channel current of the applied membrane potential −20 mV was focused on and the area of each pulse-like wavelength observed was calculated. […] By filling the other reservoir sections (22) with other candidate drugs, making the valves (10) of the branch supply path (8b) and branch discharge path (9b) corresponding to the measured section the opened state, making the other valves (10) the closed state, and similarly measuring the channel current, it is possible to measure the effect of a candidate drug on the neuron network. […]

[2] = system: Cerebral cortex cells of a rat (neuron network); experiment: Ca^2+ imaging of a neuron network; format: cell-based; conditions: buffer solution (500 μl) containing 10 μM glutamic acid added; FIG. 13(b)
Description: Inside the 35 mm dish (a), the substrate of FIG. 6 (finished being coated by PLL) was placed. Cerebral cortex cells of a rat on day 17 of birth isolated by the enzyme trypsin were suspended by a commercially available nerve cell medium (Sumitomo Bakelite) to give 2.5×10^5 cells/ml. This cell suspension: 2 ml (=5.0×10^5 cells) was added to the dish (a). In the presence of 5% CO2, this was cultured at 37° C. for 17 days. After formation of the neuron network, this substrate was transferred to another dish (b). To this dish (b), a nerve cell medium (2 ml) was added. To this medium, BAPTA-1 (1 μl) and Cremophor (10 μl) were added and cultured at 37° C. for 1 hour. The culture supernatant was discarded and a buffer solution (145 mM NaCl+10 mM HEPES+8 mM Glucose+3 mM KCl+2 mM CaCl2+1 mM MgCl2, pH7.3): 2 ml was added. This was stored at room temperature away from the light until right before use and the Ca^2+ fluorescence intensity was measured (Ca^2+ imaging measurement) (FIG. 13(a)). After this, a buffer solution (500 μl) containing 10 μM concentration glutamic acid was added. After 2.5 minutes, time lapse measurement of Ca^2+ imaging was started (FIG. 13(b)). After 9.5 minutes, an antagonist mixture: 10 μl containing 2.5 mM D-AP5 and 2.5 mM CNQX was added. Furthermore, after 10.5 minutes, time lapse measurement of Ca^2+ imaging was performed (FIG. 13(c)).

Structure (SMILES)	increase of large area pulse channel current in the state of glutamic acid toxicity [1]	concentration of Ca^2+ in the cells [2]	large area pulse channel current ([1]; glutamic acid added to first reservoir, final concentration 20 μM, FIG. 12(b))
N#Cc1cc2c(cc1[N+](=O)[O-])=NC(=O)C(=O)N=2 [CNQX, 6-cyano-7-nitroquinoxaline-2,3-dione]	substantially eliminated		
N[C@H](CCCP(=O)(O)O)C(=O)O [D-AP5, D-(−)-2-amino-5-phosphonopentanoic acid]	substantially eliminated		
N[C@@H](CCC(=O)O)C(=O)O [glutamic acid]		rise in a fluctuating manner	increases

Reference: patent US9977009B2, “Planar patch clamp device and planar patch clamp system” (Japan Science and Technology Agency, priority 2013, dated 2018)
